Data: patent US5998436A, “Pyridonecarboxylic acid derivatives or their salts and antibacterial agent comprising the same as the active ingredient” (Wakunaga Pharmaceuticals Co., Ltd., priority 1995, dated 1999)
≈ marks a conversion by molar mass, not a printed value. Structures can show the parent of a compound that is named as a salt. Where two headings read alike, the source gives them in different places.

Columns and labels:
S. aureus 209P = test: minimum growth inhibitory concentration (MIC), standard method of Japan Chemotherapy Society; format: cell-based; details: Staphylococcus aureus, read-out: minimum growth inhibitory concentration (MIC)
Procedure: (§1) It should be noted that ciprofloxacin, levofloxacin,sparfloxacin and tosufloxacin which are conventional antibacterials were also evaluated for their minimum growth inhibitory concentration (MIC, μg/ml) for the purpose of comparison.

P. aeruginosa IFO 3445 = test: as above; format: cell-based; details: Pseudomonas aeruginosa
Procedure: as §1

S. epidermidis IFO12293 = test: as above; format: cell-based; details: Staphylococcus epidermidis
Procedure: as §1

Female ICR mice (ears) = details: mouse, in vivo, iv, 40 mg/kg
Procedure: The compounds of the Examples 9, 10, 12 and 39 as described above were subjected to phototoxicity test by the procedure as described below.
Female ICR mice (5 to 6 week old) were intravenously administered with the test compound (40 mg/kg/10 ml), and irradiated with UV (320 to 400 nm, 1.8 mW/cm^2 /sec) for 4 hours. Abnormality in the ears was monitored at 0 hour (immediately after the irradiation) and after 24 and 48 hours. The ear abnormality was evaluated by the following is criteria: no abnormality (0 point), very slight erythema (1 point), well defined erythema (2 points), moderate to severe erythema and edema formation (3 points). Tosufloxacin which is a conventional known antibacterial agent was also tested in a similar way for the purpose of comparison.

[1] = IFO3445, P. aeruginosa IFO 3445, read-out: minimum growth inhibitory concentration (MIC)
[2] = S. epidermidis IFO12293, read-out: minimum growth inhibitory concentration (MIC)

SMILES: O=C(O)c1cn(C2CC2)c2cc(N3CCNCC3)c(F)cc2c1=O [Ciprofloxacin, ciprofloxacin, reference compound]
- MIC (S. aureus 209P; 209P): 0.1 µg/mL (≈ 0.302 µM)
- MIC (P. aeruginosa IFO 3445; IFO3445, read-out: minimum growth inhibitory concentration (MIC)): 0.2 µg/mL (≈ 0.604 µM)
- MIC (S. epidermidis IFO12293; IFO12293, read-out: minimum growth inhibitory concentration (MIC)): 0.39 µg/mL (≈ 1.18 µM)

SMILES: Nc1nc(-n2cc(C(=O)O)c(=O)c3cc(F)c(N4CC(N)C4)c(Cl)c32)c(F)cc1F [Ex. 9, 7-(3-aminoazetidin-1-yl)-1-(6-amino-3,5-difluoropyridin-2-yl)-8-chloro-6-fluoro-4-oxo-1,4-dihydroquinoline-3-carboxylic acid]
- ear abnormality score (0 no abnormality, 1 very slight erythema, 2 well defined erythema, 3 moderate to severe erythema and edema) (Female ICR mice (ears)): 0 point
- ear abnormality, occurrence (Female ICR mice (ears)): 0/3
- MIC (S. aureus 209P; S. aureus 209P): < 0.013 µg/mL
- MIC (P. aeruginosa IFO 3445; [1]): 0.05 µg/mL (≈ 0.114 µM)
- MIC (S. epidermidis IFO12293; [2]): 0.025 µg/mL (≈ 0.0568 µM)

SMILES: CNC1CN(c2c(F)cc3c(=O)c(C(=O)O)cn(-c4nc(N)c(F)cc4F)c3c2Cl)C1 [Ex. 10, 1-(6-amino-3,5-difluoropyridin-2-yl)-8-chloro-6-fluoro-7-(3-methylaminoazetidin-1-yl)-4-oxo-1,4-dihydroquinoline-3-carboxylic acid]
- ear abnormality score (0 no abnormality, 1 very slight erythema, 2 well defined erythema, 3 moderate to severe erythema and edema) (Female ICR mice (ears)): 0 point
- ear abnormality, occurrence (Female ICR mice (ears)): 0/3
- MIC (S. aureus 209P; S. aureus 209P): < 0.013 µg/mL
- MIC (P. aeruginosa IFO 3445; [1]): 0.1 µg/mL (≈ 0.22 µM)
- MIC (S. epidermidis IFO12293; [2]): 0.025 µg/mL (≈ 0.0551 µM)

SMILES: Nc1nc(-n2cc(C(=O)O)c(=O)c3cc(F)c(N4CC(O)C4)c(Cl)c32)c(F)cc1F [Ex. 12, 3-hydroxyazetidine salt of 1-(6-amino-3,5-difluoropyridin-2-yl)-8-chloro-6-fluoro-7-(3-hydroxyazetidin-1-yl)-4-oxo-1,4-dihydroquinoline-3-carboxylic acid]
- ear abnormality score (0 no abnormality, 1 very slight erythema, 2 well defined erythema, 3 moderate to severe erythema and edema) (Female ICR mice (ears)): 0 point
- ear abnormality, occurrence (Female ICR mice (ears)): 0/3
- MIC (S. aureus 209P; S. aureus 209P): < 0.013 µg/mL
- MIC (P. aeruginosa IFO 3445; [1]): 0.39 µg/mL
- MIC (S. epidermidis IFO12293; [2]): < 0.013 µg/mL

SMILES: Nc1nc(-n2cc(C(=O)O)c(=O)c3cc(F)c(N4CC(N)C4)c(Br)c32)c(F)cc1F [Ex. 39, 7-(3-aminoazetidin-1-yl)-1-(6-amino-3,5-difluoropyridin-2-yl)-8-bromo-6-fluoro-4-oxo-1,4-dihydroquinoline-3-carboxylic acid]
- ear abnormality score (0 no abnormality, 1 very slight erythema, 2 well defined erythema, 3 moderate to severe erythema and edema) (Female ICR mice (ears)): 0 point
- ear abnormality, occurrence (Female ICR mice (ears)): 0/3
- MIC (S. aureus 209P; S. aureus 209P): < 0.013 µg/mL
- MIC (P. aeruginosa IFO 3445; [1]): 0.05 µg/mL (≈ 0.103 µM)
- MIC (S. epidermidis IFO12293; [2]): 0.025 µg/mL (≈ 0.0516 µM)

SMILES: C[C@H]1COc2c(N3CCN(C)CC3)c(F)cc3c(=O)c(C(=O)O)cn1c23 [Levofloxacin, levofloxacin, reference compound]
- MIC (S. aureus 209P; S. aureus 209P): 0.1 µg/mL (≈ 0.277 µM)
- MIC (P. aeruginosa IFO 3445; [1]): 0.39 µg/mL (≈ 1.08 µM)
- MIC (S. epidermidis IFO12293; [2]): 0.39 µg/mL (≈ 1.08 µM)

SMILES: C[C@@H]1CN(c2c(F)c(N)c3c(=O)c(C(=O)O)cn(C4CC4)c3c2F)C[C@H](C)N1 [Sparfloxacin, sparfloxacin, reference compound]
- MIC (S. aureus 209P; S. aureus 209P): 0.1 µg/mL (≈ 0.255 µM)
- MIC (P. aeruginosa IFO 3445; [1]): 0.78 µg/mL (≈ 1.99 µM)
- MIC (S. epidermidis IFO12293; [2]): 0.2 µg/mL (≈ 0.51 µM)

SMILES: NC1CCN(c2nc3c(cc2F)c(=O)c(C(=O)O)cn3-c2ccc(F)cc2F)C1 (centres unmarked) [Tosufloxacin, tosufloxacin, reference compound]
- MIC (S. aureus 209P; S. aureus 209P): 0.05 µg/mL (≈ 0.124 µM)
- MIC (P. aeruginosa IFO 3445; [1]): 0.39 µg/mL (≈ 0.965 µM)
- MIC (S. epidermidis IFO12293; [2]): 0.2 µg/mL (≈ 0.495 µM)
